Assay results published in patent US6231894A, “Treatments based on discovery that nitric oxide synthase is a paraquat diaphorase” (Duke University, priority 1999, dated 2001).

Assays:
[1] = Therapeutic use of NO-derivatized L-NAME variant; format: in vivo; details: nitrite ester variant
Text: The invention is explained and illustrated by the following background examples and working examples. In the examples the NO-derivatized LNAME is the compound of formula (I) where R^3 is CH3 and R^1 is --(CH2)2 --ONO2. This compound is made by starting with N^ω -nitro-α-(2-hydroxyethyl)-L-arginine made as described above, forming the tert-butyloxycarbonyl derivative, dissolving in methanol, adding […], using non-aqueous trifluoroacetic acid to remove the protecting group and converting to the nitrate ester.

[2] = tested on: solid tumor; test: Working Example VII: solid tumor patient; format: in vivo, human; details: treatment for seven days
Procedure: A person is given the anti-tumor agent 5,6 dimethylxanthemone-4-acetic acid (5,6 MEXAA) to treat a solid tumor identified by biopsy on the left lower extremity, and lung. […] At this time, the patient is treated with intravenous infusion of paraquat (4 milligram per kilogram) for seven cycles.

[3] = molecular target: T1, Recombinant rat neuronal nitric oxide synthase (NOS1) (Rattus norvegicus, UniProt P29476); test: NADPH oxidation (paraquat diaphorase activity) by recombinant rat neuronal nitric oxide synthase; format: biochemical; details: NOS inhibitor 1 mM, FIG. 2(a); for effect on paraquat-stimulated NADPH oxidation: 25 μM paraquat; for effect on basal NADPH oxidation: no paraquat
T1 construct: purchased Oxis, Portland, Oreg
T1 sequence (P29476 whole entry): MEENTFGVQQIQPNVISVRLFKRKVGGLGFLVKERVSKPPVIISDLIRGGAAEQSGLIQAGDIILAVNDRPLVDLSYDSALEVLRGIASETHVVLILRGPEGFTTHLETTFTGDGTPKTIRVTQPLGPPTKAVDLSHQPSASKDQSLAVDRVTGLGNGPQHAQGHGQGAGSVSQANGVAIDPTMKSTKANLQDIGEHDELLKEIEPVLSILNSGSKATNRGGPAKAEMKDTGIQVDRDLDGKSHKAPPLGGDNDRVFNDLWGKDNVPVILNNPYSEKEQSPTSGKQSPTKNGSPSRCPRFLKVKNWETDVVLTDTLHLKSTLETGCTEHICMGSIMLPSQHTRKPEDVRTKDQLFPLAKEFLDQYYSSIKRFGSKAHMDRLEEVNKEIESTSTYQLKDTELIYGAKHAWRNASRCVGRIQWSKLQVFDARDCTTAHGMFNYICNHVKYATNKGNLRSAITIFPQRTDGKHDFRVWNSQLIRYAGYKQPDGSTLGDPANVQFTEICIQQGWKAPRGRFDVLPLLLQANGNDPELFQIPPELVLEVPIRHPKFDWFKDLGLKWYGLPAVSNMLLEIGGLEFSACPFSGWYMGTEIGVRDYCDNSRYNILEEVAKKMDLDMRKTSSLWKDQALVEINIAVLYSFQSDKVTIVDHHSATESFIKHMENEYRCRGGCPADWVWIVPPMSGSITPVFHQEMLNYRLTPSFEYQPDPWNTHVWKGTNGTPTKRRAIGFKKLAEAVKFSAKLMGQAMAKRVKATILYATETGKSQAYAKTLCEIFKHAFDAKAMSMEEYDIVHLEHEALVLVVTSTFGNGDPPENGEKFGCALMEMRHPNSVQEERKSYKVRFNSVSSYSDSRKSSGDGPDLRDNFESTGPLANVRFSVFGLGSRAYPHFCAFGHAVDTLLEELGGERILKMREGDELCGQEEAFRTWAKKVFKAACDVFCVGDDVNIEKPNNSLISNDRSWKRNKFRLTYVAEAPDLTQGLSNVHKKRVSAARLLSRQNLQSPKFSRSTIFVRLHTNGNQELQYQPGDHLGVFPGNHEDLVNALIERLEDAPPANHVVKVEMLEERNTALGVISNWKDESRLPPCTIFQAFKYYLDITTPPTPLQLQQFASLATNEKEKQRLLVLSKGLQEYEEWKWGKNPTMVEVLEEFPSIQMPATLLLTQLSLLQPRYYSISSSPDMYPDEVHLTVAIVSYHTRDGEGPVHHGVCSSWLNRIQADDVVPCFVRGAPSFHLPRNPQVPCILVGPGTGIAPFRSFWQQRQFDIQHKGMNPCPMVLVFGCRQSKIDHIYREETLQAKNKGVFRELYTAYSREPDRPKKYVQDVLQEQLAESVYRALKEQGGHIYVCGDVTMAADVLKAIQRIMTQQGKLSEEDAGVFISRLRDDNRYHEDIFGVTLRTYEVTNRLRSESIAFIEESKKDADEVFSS
Procedure: Recombinant rat neuronal nitric oxide synthase (NOS1, Oxis, Portland, Oreg.), a constitutive enzyme, was used to assay NADPH oxidation in the presence of increasing concentrations of paraquat. Reactions (0.2 ml) were performed in bis-tris propane buffer (40 mM) containing L-arginine (1 mM), CaCl2 (1.2 mM), EDTA (0.9 mM), NADPH (0.35 mM), dithiothreitol (3 mM), tetrahydrobiopterin (4 μM), catalase (1 μg/ml) and calmodulin (200 U/ml) at pH 7.4. Reactions were initiated by the addition of 1.5 U of NOS1, and the oxidation of NADPH was continuously monitored at 340 nm for 1 minute at 37° C. in a plate reader. The rate of NOS-mediated NADPH oxidation was determined using an extinction coefficient of 6.22 mM^-1 cm^-1 after subtracting the baseline of NADPH oxidation.
The experiment of Background Example 1 for NADPH oxidation was carried out in the presence and absence of 25 μM paraquat, without any NOS inhibitor (control), in the presence of L-NAME (1 mM) or in the presence of 1 mM L-NMMA. […] Only L-NAME shut down the NADPH oxidase activity.

[4] = tested on: CPA-47 endothelial cell line; test: LDH release from endothelial cells (cytotoxicity); format: cell-based; details: increasing inhibitor concentrations with 2 mM paraquat, 24 hours; FIG. 2(b)
Procedure: To test whether the above effect was present in intact cells, endothelial cell cultures, constitutively expressing NOS3 protein as determined by western blot analysis, were treated with 2 mM paraquat in the presence of increasing concentrations of either L-NAME or L-NMMA.
The endothelial cells were obtained as follows: CPA-47 endothelial cell line (CRL-1733) was purchased from American Type Culture Collection (Manassas, Va.). Endothelial cells were grown in T-75 flasks containing Ham's F-12 K medium supplemented by 1 mM […] and 10% equine serum (Gibco-BRL, Grand Island, N.Y.). Endothelial cells were plated at 3.5×10^4 cells/well in 24-well plates and experiments were performed 48 hours later when cells were near confluence. Medium was changed to minimal essential medium without serum supplement. Endothelial cells were from passages 30-36.
Cytotoxicity was measured as the percent release of LDH and compared to vehicl-treated cells (basal). The percent release of cytosolic lactate dehydrogenase (LDH) into the culture medium was used to assess the integrity of the cell membrane. LDH activity was measured by following the loss of NADH at 340 nm as described in Day, B. J., et al., J. Pharmacol. Exp. Ther. 275, 1227-1232 (1995). The percent release of LDH into the culture medium 24 hours after the paraquat treatment was used to assess cell injury.

[5] = tested on: Rabbit aortic rings; test: Acetylcholine-induced (EDRF) relaxation of aortic rings; details: Oryctolagus cuniculus; L-NAME (2 mM), acetylcholine, phenylephrine 1 μM; FIG. 3(a); read-out: inhibition of the relaxation response
Procedure: Rabbit aortic rings were treated with increasing concentrations of paraquat or L-NAME (2 mM) prior to initiating a constriction response with 1 μM phenylephrine (initial contraction).
(§1) New Zealand white male rabbits weighting 3-4 kg were anaesthetized with phenobarbital (30 mg/kg/iv). The descending thoracic aorta was isolated and placed in Krebs-Henseleit buffer (pH 7.4) and stored at 4° C. until used. The vessels were cut into 5 mm rings and submerged in 25 ml double jacketed tissue baths containing Krebs-Henseleit buffer bubbled with 95% oxygen and 5% carbon dioxide at 37° C. Rings were hung on stainless steel stirrups connected to calibrated force transducers. Rings were equilibrated with 2 g resting tension for 1 hour before use and contracted with phenylephrine (1 μM). Rings were incubated with paraquat for 15 minutes before acetylcholine-induced or exogenous relaxations were performed.
Endothelial-derived relaxing factor (EDRF) responses were initiated by addition of acetylcholine.

[6] = Working Example I: patient exposed to paraquat; format: in vivo, human; details: L-NAME IV 0.1 mg per kilogram per minute
Procedure: A person presents complaining of shortness of breath after working with paraquat. […] An intravenous line is inserted and the patient is started on IV infusion of 0.1 mg per kilogram per minute L-NAME. […] Over the following two days they are weaned off L-NAME.

[7] = Working Example III: stroke patient; format: in vivo, human
Text: A person presents with confusion and weakness in the left arm. […] The L-NAME is stopped and the patient is given an NO derivatized L-NAME compound at 0.1 milligram per kilogram per minute IV which lowers the blood pressure to 170/100.

[8] = Working Example IX: breast cancer patient with adriamycin toxicity; format: in vivo, human
Text: A person with metastatic breast cancer receives adriamycin in the standard regimen. […] They are begun on the nitric oxide synthase inhibitor L-NAME 0.5 milligrams per kilogram per minute and their systolic blood pressure is then titrated to 100-120 mm Hg. Over the following two weeks, their ejection fraction improves to 50% and the drug is stopped.

[9] = Working Example X: embolic stroke patient; format: in vivo, human; details: 10 mg IV bolus followed by 4.5 mg per kilogram per minute; L-NMMA 30 minutes, L-NAME following day
Procedure: A person with middle cerebral arterial embolic stroke presents to the Emergency Room unconscious. […] After 30 minutes the therapy is stopped and they receive L-NAME at the same dose.

[10] = Working Example IV: patient with E. Coli bacteremia; format: in vivo, human
Procedure: A person with E. Coli bacteremia presents with a fever of 101° F. and a blood pressure of 70/50. […] The drug is stopped and they are begun on NO-derivatized L-NAME at 0.1 mg/kg/minute. […] Blood pressure rises to 100/80.

[11] = Working Example XIV: congestive heart failure and COPD patient; format: in vivo, human; details: 10 milligram per kilogram IV bolus and IV drip 0.5 milligrams per kilograms per minute
Text: A patient with congestive heart failure and COPD presents acutely short of breath. They are intubated for respiratory failure. […] Their FEV1 is 0.8. The patient has a protracted hospital course and attempts to wean them from the ventilator are unsuccessful. They are then started on 10 milligram per kilogram IV bolus of L-NMMA and an intravenous drip at 0.5 milligrams per kilograms per minute.

[12] = tested on: breast cancer; test: Working Examples XI and XII: breast cancer patient; format: in vivo, human
Procedure: A person presents with breast cancer and is treated with standard regimen including adriamycin. […] They are given an infusion of a temperature-sensitive liposome encapsulated nitric oxide synthase, which is released in to the tumor by local heat (40-42° centigrate).
The adriamycin infusion in Example X after liposome encapsulated nitric oxide synthase treatment is replaced by 2 mg per day of diquat for six days.

[13] = tested on: Rabbit aortic rings; test: Exogenous NO-induced relaxation of aortic rings; details: 2 mM paraquat, phenylephrine 1 μM; FIG. 3(b)
Procedure: as §1
In another case, rabbit aortic rings were constricted with 1 μM phenylephrine (initial contraction) and relaxed with increasing concentration of NO in the presence or absence of 2 mM paraquat. The results are shown in FIG. 3(b) where relaxations are expressed as a percent of the initial phenylephrine-induced contraction.

[14] = tested on: RAW-264.7 monocyte macrophage cells; test: LDH release from macrophages (cytotoxicity); format: cell-based; details: conclusion of Background Example 4
Procedure: The RAW-264.7 monocyte macrophage cells line (TIB-71) was purchased from the American Type Culture Collection (Manassas, Va.). The cells were grown in T-75 flasks containing DMEM (Gibco-BRL, Grand Island, N.Y.) supplemented with 1 mM pyruvate, 4.5 g/L glucose and […] fetal bovine serum Macrophages were plated at 2.0×10^4 cells/well in 24-well plates and experiments were performed when cells were near confluence. Macrophages were immunostimulated with 50 ng/ml lipopolysaccharide (LPS) from E. coli serotype 0111:B4 (Signia, St. Louis, Mo.) and 50 U/ml recombinant mouse interferon gamma (INF-γ, R&D Systems, Minneapolis,Minn.). Macrophages were used between passages 2-8. Cell cultures were kept in a 37° C. incubator with air and 5% carbon dioxide.
NOS2 was induced in RAW cells using a mixture of interferon-γ and lipopolysaccharide (LPS) referred to as "cytomix." Unstimulated (basal) and activated (cytomix) macrophages were treated with 0.1 mM paraquat or not treated with paraquat and cytotoxicity and NO production were assessed at 24 hours.
Cell injury was assessed by measuring LDH release.
To further exclude the role of peroxynitrite, macrophages were treated with increasing concentrations of the NO-donor, DETA NONOate in the presence of 0.1 mM paraquat. Macrophage cytotoxicity and NO release were assessed 24 hours after treatments. Cell injury was assessed by measuring LDH release.

[15] = 0.1 milligram per kilogram per minute IV
[16] = 0.1 mg/kg/minute, after L-NMMA stopped

Molecule: COC(=O)[C@@](N)(CCCNC(=N)N[N+](=O)[O-])CCON=O
- therapeutic results [1]: Therapeutic results are also obtained

Molecule: Cc1ccc2c(=O)c3cccc(CC(=O)O)c3oc2c1C [5,6 MEXAA, 5,6 dimethylxanthemone-4-acetic acid]
- nitric oxide synthase expression in the tumor on biopsy [2]: increase in nitric oxide synthase expression in the tumor

Molecule: COC(=O)[C@@H](N)CCCNC(=N)N[N+](=O)[O-] [L-NAME, L-nitroarginine, methyl ester]
- effect on paraquat-stimulated NADPH oxidation [3]: completely inhibited paraquat-stimulated NADPH oxidation
- effect on basal NADPH oxidation [3]: little effect on basal NADPH oxidation
- protection from paraquat toxicity (LDH release) [4]: dose-dependent protection from paraquat toxicity
- inhibition at 2000 µM [5]: > 90%
- symptoms ([6]; over the day): symptoms improve over the day
- arteriolar PO2 ([6]; increases from 60, over the day): 85 mm Hg
- symptoms of stroke [7, 15]: symptoms do not improve
- blood pressure during L-NAME ([7]; L-NAME 0.1 milligram per kilogram per minute IV): 220/110
- ejection fraction on L-NAME ([8]; 0.5 milligrams per kilogram per minute, two weeks, from 35%): 50%
- improvement / consciousness [9]: regains consciousness

Molecule: CNC(=N)NCCC[C@H](N)C(=O)O [L-NMMA, L-N-methylarginine]
- effect on paraquat-stimulated NADPH oxidation [3]: partially blocked paraquat-induced NADPH oxidation
- effect on basal NADPH oxidation [3]: small increase in basal NADPH oxidation
- protection from paraquat toxicity (LDH release) [4]: not L-NMMA, produced a dose-dependent protection from paraquat toxicity
- pulmonary hypertension and cardiac output ([10]; L-NMMA infusion 10 mg/kg/hr.): profound pulmonary hypertension and a fall in cardiac output
- improvement / consciousness [9]: without improvement
- weaning from the ventilator [11]: weaned from the ventilator over the following day

Molecule: COC(=O)[C@@](N)(CCCNC(=N)N[N+](=O)[O-])CCO[N+](=O)[O-] [NO-derivatized L-NAME]
- symptoms of stroke [7, 15]: symptoms of confusion abate and motion returns to the arm
- blood pressure after switch to NO derivatized L-NAME ([7]; 0.1 milligram per kilogram per minute IV, from 220/110): 170/100
- cardiac output [10, 16]: Cardiac output normalizes
- pulmonary pressure [10, 16]: Pulmonary pressure normalizes
- blood pressure ([10]; 0.1 mg/kg/minute, 70/50 at presentation): 100/80

Molecule: COc1cccc2c1C(=O)c1c(O)c3c(c(O)c1C2=O)C[C@@](O)(C(=O)CO)C[C@@H]3O[C@H]1C[C@H](N)[C@H](O)[C@H](C)O1 [adriamycin]
- adverse effect of adriamycin ([8]; standard regimen): light sensitivity and shortness of breath
- ejection fraction after adriamycin ([8]; standard regimen, echocardiogram): 35%
- tumor regression ([12]; adriamycin after temperature-sensitive liposome encapsulated nitric oxide synthase released by local heat, six cycles): the tumor is shown to regress after six cycles of therapy
- tumor response to adriamycin alone ([12]; standard regimen including adriamycin): The tumor fails to respond

Molecule: c1cc[n+]2c(c1)-c1cccc[n+]1CC2 [diquat]
- tumor regression ([12]; diquat 2 mg per day for six days after liposome encapsulated nitric oxide synthase): The tumor is shown to regress

Molecule: nitric oxide [NO]
- effect on exogenously added NO-induced relaxation [13]: NO still works in a system where NO is inhibited and superoxide is generated
- cell killing / amelioration of toxicity, conclusion [14]: toxicity can be ameliorated by putting NO back into the system
